Assay results from the METLIN SMRT retention time set (Domingo-Almenara et al. 2019).

Test: gradient 5% acetonitrile 3 min, to 50% in 2 min, to 85% in 15 min, held 3 min, 100 µL/min
Details: column: Zorbax Extend-C18 2.1 x 50 mm; eluents: water / acetonitrile, 0.1% formic acid
Procedure, shortened: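 Pure standards were run in mixtures of ~100 molecules by HPLC coupled to a quadrupole time-of-flight mass spectrometer. The column was a Zorbax Extend-C18 (2.1 × 50 mm, 1.8 μm) at 100 μL/min, with water and acetonitrile each containing 0.1% formic acid, in positive and negative ionization mode. Dead and dwell volumes were 40 μL and 900 μL. Retention time was taken from computationally picked adduct peaks, each manually inspected, with data collected over 3 months.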

| Compound | RP-LC retention time [s] |
| --- | --- |
| Cc1cccc(CNc2cc(-n3ccnc3)ncn2)c1 | 656 |
| CS(=O)(=O)Nc1ccc(C2(C(=O)NCc3ccccn3)CCCCC2)cc1 | 620 |
| O=C(c1ccc(F)c(Cl)c1)N1CCN(c2cc(-c3cccnc3)[nH]n2)CC1 | 620 |
| Cc1ccc2c(c1)C(=O)NC1(CCN(C(=O)Cc3cccc(F)c3)CC1)N2C | 787 |
| Cc1ccccc1NC(=O)Cn1c(=O)n(-c2ccc(F)cc2)c2ncccc21 | 814 |
| CCCOC(=O)C1=C(C)NC2=C(C(=O)C(C(=O)OC)C(C)C2)C1c1ccc(F)cc1 (stereo not drawn) | 958 |
| Cn1cc2c3c(cccc31)CN(C(=O)Nc1ccc(Br)cc1F)CC2 | 1000 |
| CCc1cccc(C)c1Nc1c(-c2ccc(Cl)cc2)nc2cnccn12 | 1110 |
| CCc1ccc(C2=C(C)C(N3CCCN(C(=O)NCCC(C)C)CC3)=NS2(=O)=O)cc1 | 926 |
| Cn1cc(-c2ccncc2)cc1C(=O)NCc1ccc(Br)cc1 | 662 |
| CCN1CCN(CC(=O)N2N=C(c3cccs3)CC2c2ccc(F)cc2)C(=O)C1=O (stereo not drawn) | 703 |
| O=c1c2sccc2n(Cc2nc(-c3ccc(Br)cc3)no2)c(=O)n1-c1cccc(F)c1 | 1070 |
| COc1ccc(/C=C/c2nn3c(CCc4ccccc4)nnc3s2)cc1 | 910 |
| O=C(Nc1ccc(-c2cn3cccnc3n2)cc1)c1cccc(Cl)c1 | 664 |
| COCCN1C(=O)CCc2cc(NC(=O)c3ccc(Br)o3)ccc21 | 721 |
| Cc1ccccc1OCC(=O)Nc1nc(-c2ccccc2Cl)cs1 | 1210 |
| CN(C(=O)CCCOc1ccc2[nH]c(=O)ccc2c1)C1CCCCC1 | 840 |
| Cc1nn(S(=O)(=O)N(C)C)c(C)c1Br | 881 |
| Cn1c(CNC(=O)CSc2nnc3c4ccccc4nc(-c4ccco4)n23)nc2ccccc21 | 632 |
| O=C(c1cc(Cl)ccc1Cl)N1CCN(CC(O)c2cccs2)CC1 (stereo not drawn) | 581 |
| COc1cccc(CNC(=O)Cn2c(=O)c(CCC(=O)NCC(C)C)nc3ccccc32)c1OC | 757 |
| Cc1cc(C)nc(NS(=O)(=O)c2ccc(Nc3nc(-c4ccc(C(C)C)cc4)cs3)cc2)n1 | 1120 |

| Compound | RP-LC retention time [s] |
| --- | --- |
| CN1c2ccccc2Oc2nnc(N3CCN(c4ccccn4)CC3)cc21 | 550 |
| COc1ccc(-c2noc(C3CCCN3C(=O)c3cc(F)cc(F)c3)n2)cc1OC (stereo not drawn) | 937 |
| Cc1ccc(-c2noc(C3CCCN3C(=O)c3ccc4c(c3)OCO4)n2)cc1 (stereo not drawn) | 1000 |
| Cc1cc(C(=O)N2CC(F)(F)C[C@H]2c2nc(C)no2)on1 | 723 |
| COCCCNCc1ccc(-c2ccc(C(C)O)cc2)o1 (stereo not drawn) | 600 |
| Cn1ccc2c(cc(C(=O)NCc3cccc(Cl)c3)n2C)c1=O | 724 |
| Cc1cc(C(=O)Nc2ccc(S(C)(=O)=O)cc2)on1 | 625 |
| Cn1c(C(=O)NCc2ccccn2)cc2c(=O)oc3ccccc3c21 | 607 |
| COc1ccccc1CNC(=O)C1CCCN(C(=O)c2cc3sccc3n2C)C1 (stereo not drawn) | 852 |
| COc1ccc(S(=O)(=O)N2CCN(c3ccc(Nc4ccccn4)nn3)CC2)cc1C | 603 |
| Cc1ccc(CNC(=O)C(C)Oc2cc(-c3ccccc3)c3c(C)nn(C)c3n2)o1 (stereo not drawn) | 769 |
| CCN(CC)c1ncc2c(n1)CCC(C(=O)NCc1ccc(C(C)C)cc1)C2 (stereo not drawn) | 821 |
| CC(C)Oc1ccc(CNC(=O)CCCN2C(=O)CCn3nc(-c4cccn4C)cc32)cc1 | 833 |
| CCOc1cc(=O)c(C(=O)N2CCC(C(N)=O)CC2)nn1-c1ccc(F)cc1 | 595 |
| O=C1NC(c2cccc([N+](=O)[O-])c2)=CCN1c1ccccc1O | 837 |
| Cc1cccc(OCC(=O)N2CCc3cc(-c4csc(C)n4)ccc32)c1 | 847 |
| Cc1ccc(-c2cc(C(=O)N3CCC(NC(=O)Cc4cccs4)CC3)[nH]n2)c(C)c1 | 776 |
| CC1(O)C=CC(=O)C=C1 | 551 |
| O=C(Nc1nccs1)C(=O)c1c(-c2ccccc2)cc2ccccn12 | 866 |
| Cc1ccc(F)c(NC(=O)C2CC(=O)N(c3ccc4c(c3)CCN4C(=O)C3CC3)C2)c1 (stereo not drawn) | 799 |
| CC(=O)NC[C@H]1CN(c2ccc(-c3ccc(CNCc4cn[nH]n4)cc3)c(F)c2)C(=O)O1 | 647 |
| CC(NC(=O)c1ccc(F)c(F)c1)C(=O)Nc1nc2ccccc2[nH]1 (stereo not drawn) | 655 |

| Compound | RP-LC retention time [s] |
| --- | --- |
| COc1ccc(OC)c(S(=O)(=O)NCc2ccc3c(c2)CCN3C(=O)c2ccccc2)c1 | 896 |
| CCOc1cccc(-c2noc(-c3nnn4c3COC(c3ccc(C)cc3C)C4)n2)c1 (stereo not drawn) | 643 |
| CCOC(=O)CNC(=O)NCCc1nc2cccnc2n1-c1ccccc1 | 608 |
| O=C(c1cc(Cl)ccc1Cl)N1CCN(c2cc(-c3cccs3)[nH]n2)CC1 | 870 |
| COc1cc(=O)n2c(c1C(=O)Nc1ccc(Br)cc1C)CCCC2 | 757 |
| CC(C)CC(NC(=O)c1ccc2c(c1)OCO2)C(=O)Nc1nc2ccccc2[nH]1 (stereo not drawn) | 710 |
| Cc1ccc2nc(-c3ccc(N(C)C)cc3)c(Nc3ccccc3C)n2c1 | 812 |
| COc1ccc2c(c1)CCc1c-2n[nH]c1C(=O)N1CCN(c2cc(=O)n(C)c(=O)n2C)CC1 | 659 |
| CC(=O)NCCc1csc(C2CCCN(C(=O)C3CCOC3)C2)n1 (stereo not drawn) | 603 |
| Cc1ccc2cc(CCC(=O)NCCCN3CCCCC3C)c(=O)[nH]c2c1 (stereo not drawn) | 590 |
| Cc1ccc(S(=O)(=O)N2C(=O)CCC2C(=O)Nc2ccc(C)c(F)c2)cc1C (stereo not drawn) | 1020 |
| COc1ccc(OC)c(NC(=O)C(C)Oc2ccc(=O)n(-c3ccc(F)cc3)n2)c1 (stereo not drawn) | 816 |
| Cc1ccc(CNC(=O)C(C)n2nc(C)c3nn(-c4ccccc4)c(-n4cccc4)c3c2=O)o1 (stereo not drawn) | 987 |
| Cc1ccc(S(=O)(=O)N2C[C@@H](F)C[C@H]2C(=O)N2CCc3ccccc3C2)cc1F | 954 |
| CCc1ccc(NC(=O)Cn2c(N3CCOCC3)nc(C)cc2=O)cc1 | 711 |
| CCOc1ccc(Br)cc1S(=O)(=O)Nc1ccc(-c2cn3ccc(C)nc3n2)cc1 | 724 |
| Cc1cccc(-n2ccnc(SCC(=O)Nc3cc(Cl)ccc3C)c2=O)c1 | 915 |
| O=c1c2cnc3nc(-c4ccccc4Cl)nn3c2ccn1-c1ncn[nH]1 | 670 |
| CCn1c(=O)c(N2CCC(C(=O)NCCc3c[nH]c4ccc(Cl)cc34)CC2)nc2cccnc21 | 993 |
| CN(CC1CCOCC1)S(=O)(=O)Cc1cccc(Cl)c1 | 835 |
| CCCn1nnc2cc(S(=O)(=O)N3CCCC(C(=O)N4CCCCCC4)C3)ccc21 (stereo not drawn) | 890 |
| CC(C(=O)N1CCN(c2cc(=O)n(C)c(=O)n2C)CC1)N1C(=O)COc2ccccc21 (stereo not drawn) | 627 |

| Compound | RP-LC retention time [s] |
| --- | --- |
| COc1ccc(CNC(=O)C2(C)CCN(C(=O)Nc3ccc(C)c(Cl)c3)CC2)cc1 | 935 |
| Cc1ccc(CNC(=O)Cn2c(N3CCCC3)nc(C)cc2=O)cc1 | 618 |
| COc1ccc(N2CCN(c3ncc(S(=O)(=O)c4ccccc4)c(N)n3)CC2)cc1 | 848 |
| Cc1ccc2cc(CCC(=O)N(C)Cc3cn(C)nc3C)c(=O)[nH]c2c1 | 645 |
| COC(=O)C1=C(CN2CCN(C)CC2)NC(=O)NC1c1cc(C)ccc1C (stereo not drawn) | 614 |
| CCS(=O)(=O)c1ccc2c(c1)N(Cc1nc(-c3ccc(F)cc3)no1)C(=O)CO2 | 902 |
| Cc1ccc(CSc2nnc3c(S(=O)(=O)N4CCCCC4)cccn23)cc1 | 928 |
| Cc1ccc(NC(=O)Cn2nc3c(Oc4ccccc4C)nccn3c2=O)c(C)c1 | 873 |
| Cc1cccc(NC(=O)N(C)CCc2noc(COc3cccc(C)c3)n2)c1 | 970 |
| CCN(CC)c1nc2cc(C(=O)OC)ccc2c(=O)n1-c1ccc(C)c(C)c1 | 1270 |
| O=C(COc1ccccc1F)Nc1cc(C(F)(F)F)ccc1Cl | 1150 |
| COC(=O)c1ccc(NC(=O)C2CCN(S(=O)(=O)c3ccc4c(c3)sc(=O)n4C)CC2)cc1 | 854 |
| Cc1cc(S(=O)(=O)N2CCc3c(c(-c4nnc(-c5ccccc5F)o4)nn3C)C2)ccc1F | 988 |
| CC(=O)N1CCc2cc(N3CC(C(=O)NC4CCCCCC4)CC3=O)ccc21 (stereo not drawn) | 723 |
| COC(=O)c1cc(S(=O)(=O)N2CCCC2C(=O)NCc2ccc(Cl)cc2)cn1C (stereo not drawn) | 865 |
| COC(=O)c1ccc(NC(=O)Cn2c3cc(Cl)ccc3c(=O)n2C(C)(C)C)cc1 | 1300 |
| COc1ccc(N2CCCCn3c2nc2c3c(=O)n(C)c(=O)n2C)cc1 | 759 |
| OC(CN1CCC(Cc2ccc(F)cc2)CC1)c1ccc(Cl)cc1 (stereo not drawn) | 825 |
| Cc1nn(C(=O)C(C)(C)C)c(C)c1S(=O)(=O)N1CCCC1 | 1180 |
| COC(=O)c1ccc2c(=O)n(-c3cccc(C)c3)c(N3CCN(c4ccccn4)CC3)nc2c1 | 726 |
| COc1ccc(CNC(=O)Cn2c(N3CCOCC3)nc(C)cc2=O)cc1 | 629 |
| CCCNC(=O)N1CCN(Cc2nc3cccnc3n2-c2ccc(F)cc2)CC1 | 604 |
